The target of assay [1] is T1, HisH subunit of imidazole glycerol phosphate synthase (IGPS) (Thermotoga maritima, UniProt Q9X0C8).
T1 sequence (Q9X0C8 1-201): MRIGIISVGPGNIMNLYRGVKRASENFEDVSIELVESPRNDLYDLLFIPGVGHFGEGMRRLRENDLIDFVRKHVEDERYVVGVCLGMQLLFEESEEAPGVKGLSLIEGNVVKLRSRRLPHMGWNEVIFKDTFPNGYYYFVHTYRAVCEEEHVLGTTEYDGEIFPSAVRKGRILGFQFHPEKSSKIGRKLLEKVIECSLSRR
T1 sequence (Q9X0C6 1-253 partner): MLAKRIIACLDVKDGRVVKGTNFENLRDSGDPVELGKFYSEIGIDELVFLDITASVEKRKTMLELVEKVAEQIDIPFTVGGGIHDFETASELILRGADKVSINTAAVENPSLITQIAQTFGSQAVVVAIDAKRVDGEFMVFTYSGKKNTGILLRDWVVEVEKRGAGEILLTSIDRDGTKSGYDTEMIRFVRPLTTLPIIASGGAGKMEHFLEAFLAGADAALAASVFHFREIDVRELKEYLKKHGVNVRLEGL
Kind of assay: covalent labeling, loss of free Cys thiol confirmed by DTNB assay. In kind it is binding.

In assay [2] the target is T2, HisF subunit of imidazole glycerol phosphate synthase (IGPS) (Thermotoga maritima, UniProt Q9X0C6).
T2 sequence (Q9X0C6 1-253): T1 sequence (Q9X0C6 1-253 partner)
T2 sequence (Q9X0C8 1-201 partner): T1 sequence (Q9X0C8 1-201)
The experiment in a line: NMR lineshape analysis of titration. In kind it is binding.

Turning to `N[C@H](C(=O)O)[C@@H]1CC(Cl)=NO1` [acivicin], the “covalent labeling, loss of free Cys thiol confirmed by DTNB assay” value in assay [1] is given as “Covalent modification of IGPS with the non-hydrolyzable Gln analogue acivicin was achieved by incubating IGPS with two molar equivalents”.
As for `NC(=O)c1ncn([C@@H]2O[C@H](COP(=O)(O)O)[C@@H](O)[C@H]2O)c1N` [AICAR], the equilibrium dissociation constant (Kd) in assay [2] was found to be 1500 ± 200 µM.

By Kd is commonly meant the free concentration of one partner at which half of the binding sites on the other are occupied at equilibrium, for simple one-to-one binding.

The values are drawn from publication PMC4938718 (Structure (London, England : 1993), 2016).
